Patent publication US5428031A, “Methods of treating cardiac arrhythmia” (priority 1993, dated 1995)

How the values were obtained:
Type in all cases: cell-based
[1] = test system: IK1 (inward rectifier K+ current); test: voltage clamp measurement of IK1 block in isolated guinea pig ventricular myocytes; conditions: 1 μM
Protocol: (§1) Guinea pig ventricular myocytes were isolated using a modification of the procedure described by Mitra R and Morad M., "A Uniform Enzymatic Method for Dissociation of Myocytes from Hearts and Stomachs of Nertilorates", Am. J. Physiol. 249:H1056-60 (1985). Excised hearts were perfused through the aorta (retrograde fashion) at a rate of 10 ml/min with oxygenated, warmed (37° C.) solutions described below. The heart was initially perfused for 7 minutes with a Tyrode's solution containing, in mM: 132 NaCl, 4 KCl, 1.2 MgCl2, 10 HEPES (formal name N-2-Hydroxyethylpiperazine-N-2-ethanesulfonic acid), 5 glucose, pH=7.2. The head was then perfused with the same nominally Ca^2+ -free solution containing 150 units/ml Type II collagenase (Worthington) and 0.5 units/ml Type XIV protease (Sigma) for 8 minutes. This perfusate was followed by a Tyrode's solution containing 0.2 mM CaCl2 (without enzymes) for 5 minutes. The digested ventricles were cut into small pieces and gently shaken until cells were visibly dispersed. […]
(§2) The suction microelectrode technique described by Giles, W. R. and Shibata, E. F., "Voltage clamp of bull-frog cardiac pacemaker cells: a quantitative, analysis of potassium currents". […]
(§3) To record K^+ currents, the cells were bathed in a Ca^2+ -free Tyrode's :solution containing […] nisoldipine. […] Data was analyzed as % block from control membrane currents. […]

ICa (Ca2+ current) = test: voltage clamp measurement of Ca2+ current in isolated guinea pig ventricular myocytes; conditions: 0.1 μM
Protocol: as §1, §2, §3

[2] = test system: guinea pig ventricular myocytes; test: frequency-dependent effects on action potential duration (APD90) in isolated ventricular myocytes; conditions: for APD90 percent change at 0.01 µM / APD90 percent change at 0.03 µM / APD90 percent change at 0.1 µM: Cavia porcellus, Ventricular myocyte; for APD90 percent change at 0.01 µM: 10 nM; for APD90 percent change at 0.03 µM: 30 nM; for APD90 percent change at 0.1 µM: 100 nM; for APD90 % Change: Washout
Protocol: Guinea pig ventricular myocytes were isolated using a modification of the procedure described by Mitra R and Morad M., "A Uniform Enzymatic Method for Dissociation of Myocytes from Hearts and Stomachs of Nertilorates", Am. J. Physiol. 249:H1056-60 (1985). Excised hearts were perfused through the aorta (retrograde fashion) at a rate of 10 ml/min with oxygenated, warmed (37° C.) solutions described below. The heart was initially perfused for 7 minutes with a Tyrode's solution containing, in mM: 132 NaCl, 4 KCl, 1.2 MgCl2, 10 HEPES (formal name N-2-Hydroxyethylpiperazine-N-2-ethanesulfonic acid), 5 glucose, pH=7.2. The head was then perfused with the same nominally Ca^2+ -free solution containing 150 units/ml Type II collagenase (Worthington) and 0.5 units/ml Type XIV protease (Sigma) for 8 minutes. This perfusate was followed by a Tyrode's solution containing 0.2 mM CaCl2 (without enzymes) for 5 minutes. The digested ventricles were cut into small pieces and gently shaken until cells were visibly dispersed. The cells were stored at room temperature until use, within 8 hours after isolation.
Cell preparation: Same as described in section I.
Transmembrane action potential measurements were made using a technique similar to that described previously by Salata, J. J. and Wasserstrom, J. A. "Effects of quinicline on action potentials and ionic currents in isolated canine ventricular myocytes", Circ. Res. 62:324-337, 1988. The isolated ventricular myocytes were transferred to a glass bottom experimental perfusion chamber (12×25 mm) filled with a HEPES-Tyrode's solution containing in mM: 132 NaCl, 4 KCl, 1.8 CaCl2, 1.2 MgCl2, 10 HEPES, 5 glucose, pH=7.2 to a height of 2 mm. After the myocytes settled to the bottom of the chamber, they were continuously superfused with preheated HEPES-Tyrode's solution at a rate of 2.0 ml/min. The temperature was monitored and maintained at 36°±0.5° C. The experimental chamber was placed on the stage of an inverted microscope (Nikon Diaphot-TMD) to view the cells. Transmembrane potentials were recorded by means of conventional glass microelectrodes that were filled with 3M KCl and had tip resistances of 40-60 M.OMEGA.. The microelectrode was connected through a Ag--AgCl electrode to the headstage preamplifier (model HS-2, gain=1.0) of an operational amplifier with a high input impedance and variable input capacitance neutralization (Axoclamp -2A, Axon Instruments, Foster City, Calif.). The voltage drop across the microelectrode produced by current injection was compensated electronically with an active bridge circuit immediately-before impalement of a cell. The experimental bath was grounded through a 3M KCl agar bridge and a Ag--AgCl junction. The microelectrodes were positioned carefully at the cell surface using a hydraulic micromanipulator (Narishige Model MO-303, Greenvale, N.Y.). Penetration of the cell membrane was achieved by briefly (1-3 msec)increasing the input capacitance neutralization to cause oscillation of the amplifier. After establishing a stable microelectrode seal, the myocyte was lifted off the bottom of the chamber to allow complete superfusion of the cell. Action potentials were generated by passing current pulses of 1 msec in duration, and with an intensity of 1.2 times threshold at varying stimulus rates through the recording electrode. Cells were allowed to stabilize for 20 minutes before collection of data began. Voltage signals were digitized using an analog to digital converter (TL-1, DMA interface, Axon Instruments, Foster City, Calif.) at a sampling frequency of 2 kHz. Data acquisition and analysis were performed with pClamp software (Axon Instruments, Foster City, Calif.) and an AST 486 computer (Irvine, Calif.). Action potentials were stimulated at rates of either 60, 120, and 180 beats/min and were allowed to stabilized for 1 minute at each rate. […]

SMILES | effect on IK1 [1] | effect on ICa (ICa (Ca2+ current)) | APD90 percent change at 0.01 µM ([2]; 60 beats/min) | APD90 percent change at 0.01 µM ([2]; 120 beats/min) | APD90 percent change at 0.01 µM ([2]; 180 beats/min) | APD90 percent change at 0.03 µM ([2]; 60 beats/min) | APD90 percent change at 0.03 µM ([2]; 120 beats/min) | APD90 percent change at 0.03 µM ([2]; 180 beats/min) | APD90 percent change at 0.1 µM ([2]; 60 beats/min) | APD90 percent change at 0.1 µM ([2]; 120 beats/min) | APD90 percent change at 0.1 µM ([2]; 180 beats/min) | APD90 % Change ([2]; 60 beats/min) | APD90 % Change ([2]; 120 beats/min) | APD90 % Change ([2]; 180 beats/min) | reversibility of APD90 increase ([2]; after 20 min of washout) | frequency dependence of APD90 increase ([2]; at higher concentrations) | frequency dependence of APD90 increase ([2]; at lower concentrations (10 nM)) | effect on action potential duration ([2]; isolated guinea pig myocytes)
Cc1cccc(NC(=O)N[C@@H]2N=C(c3ccccc3)c3ccccc3N(C)C2=O)c1 [Compound 4, (R)-N-(2,3-dihydro-1-methyl-2-oxo-5-phenyl-1H-1,4-benzodiazepin-3-yl)-N'-(3-methylphenyl)urea] | Little or no effect | Little or no effect | – | – | – | – | – | – | – | – | – | – | – | – | – | – | – | –
CN1C(=O)[C@H](NC(=O)/C=C/c2ccc(Cl)cc2Cl)N=C(c2ccccc2)c2ccccc21 [Example 26, E-(+)-N-[(3R)-2,3-Dihydro-1-methyl-2-oxo-5-phenyl-1H-1,4-benzo-diazepin-3-yl]-3-(2,4-dichlorophenyl)-2-propenamide] | – | – | 9.4% | 10.1% | 12.4% | 16% | 14.8% | 14.4% | 24.7% | 24.3% | 22.9% | 4.2% | 5.3% | 5.9% | nearly completely reversible | frequency-independent manner | forward frequency-dependent manner | concentration and rate-dependent increases in the action potential duration
